What was measured:
[1] = tested on: ulcerative colitis model (dextran sodium sulphate); test: Effect Example 3: therapeutic effect on ulcerative colitis, dextran sodium sulphate model, oral gavage, 7 days; assay type: in vivo, C57 mice; conditions: 40 mg/kg oral gavage; for Average colon length of mice: day 7
Method: Fifty 10-week-old male C57 mice, SPF class animal house, temperature 20-26° C., humidity 40%-70%, alternating light-dark periods (12 h/12 h).
(§1) Quarantine-qualified animals with similar weights were selected for the experiment.
Mice in the blank control group were given normal drinking water throughout the experiment. The other 9 groups of mice were given drinking water containing 2% dextran sodium sulphate from day 1 to day 7. All groups were administered by oral gavage once a day according to table 10, until the end of the experiment.
(§2) (1) The mice were weighed daily.
(2) Blood samples were collected from the orbital vein on day 7 and stored at −80° C.
(3) On day 7, the mice were sacrificed by cervical vertebra dislocation, the colon was removed and a small amount of fecal was taken from the colon and left as a sample. The colon length and colon weight were measured. A portion of the colon and the fecal sample was stored at −80° C.

[2] = tested on: ulcerative colitis model (dextran sodium sulphate); test: Effect example 2: therapeutic effect on ulcerative colitis, dextran sodium sulphate model, oral gavage, 14 days; assay type: in vivo, C57 mice; conditions: for Average colon length of mice: day 14; for Weight effect compared with the positive control drug SASP (in words): 40 mg/kg oral gavage vs SASP 30 mg/kg oral gavage; for Effect on the reduction of weight in mice (in words): 40 mg/kg oral gavage, vs ulcerative colitis model group
Method: Thirty-five 10-week-old male C57 mice, SPF class animal house, temperature 20-26° C., humidity 40%-70%, alternating light-dark periods (12 h/12 h).
as §1
Mice in the blank control group were given normal drinking water throughout the experiment. The other 6 groups of mice were given drinking water containing 2% dextran sodium sulphate from day 1 to day 5, normal drinking water from day 6 to day 7, drinking water containing 2% dextran sodium sulphate from day 8 to day 12, and normal drinking water from day 13 to day 14. The experiment ended on day 14. All groups were administered by oral gavage once a day according to table 7, until the end of the experiment on day 14.
as §2
(2) Blood samples were collected from the orbital vein on day 14 and stored at −80° C.
(3) On day 14, the mice were sacrificed by cervical vertebra dislocation, the colon was removed and a small amount of fecal was taken from the colon and left as a sample. The colon length and colon weight were measured. A portion of the colon and the fecal sample was stored at −80° C.

[3] = Day 1, treatment group 40 mg/kg oral gavage
[4] = Day 2, treatment group 40 mg/kg oral gavage
[5] = Day 3, treatment group 40 mg/kg oral gavage
[6] = Day 4, treatment group 40 mg/kg oral gavage
[7] = Day 5, treatment group 40 mg/kg oral gavage
[8] = Day 6, treatment group 40 mg/kg oral gavage
[9] = Day 7, treatment group 40 mg/kg oral gavage
[10] = Day 8, treatment group 40 mg/kg oral gavage
[11] = Day 9, treatment group 40 mg/kg oral gavage
[12] = Day 10, treatment group 40 mg/kg oral gavage
[13] = Day 11, treatment group 40 mg/kg oral gavage
[14] = Day 12, treatment group 40 mg/kg oral gavage
[15] = Day 13, treatment group 40 mg/kg oral gavage
[16] = Day 14, treatment group 40 mg/kg oral gavage
[17] = treatment group 40 mg/kg oral gavage

Row | SMILES | Average weight of mice ([1]; Day 1) [g] | Average weight of mice ([1]; Day 2) [g] | Average weight of mice ([1]; Day 3) [g] | Average weight of mice ([1]; Day 4) [g] | Average weight of mice ([1]; Day 5) [g] | Average weight of mice ([1]; Day 6) [g] | Average weight of mice ([1]; Day 7) [g] | Average colon length of mice [1] [cm] | Weight effect compared with the positive control drug SASP (in words) [2] | Effect on the reduction of weight in mice (in words) [2] | Average weight of mice [2, 3] [g] | Average weight of mice [2, 4] [g] | Average weight of mice [2, 5] [g] | Average weight of mice [2, 6] [g] | Average weight of mice [2, 7] [g] | Average weight of mice [2, 8] [g] | Average weight of mice [2, 9] [g] | Average weight of mice [2, 10] [g] | Average weight of mice [2, 11] [g] | Average weight of mice [2, 12] [g] | other results
1 | CC(=O)OC[C@H]1O[C@@H](OC2=C(C)OC(=C3CCCC3)C2=O)[C@H](OC(C)=O)[C@@H](OC(C)=O)[C@@H]1OC(C)=O [Compound I-8] | 21.85 | 21.97 | 21.77 | 21.33 | 20.62 | 20.52 | 20.32 | 6.1 | – | – | – | – | – | – | – | – | – | – | – | – | Effect on the colon length (in words) [1]: can gradually restore the colon length
2 | CC(=O)OC[C@H]1O[C@@H](OC2=C(C)OC(=C3CCOCC3)C2=O)[C@H](OC(C)=O)[C@@H](OC(C)=O)[C@@H]1OC(C)=O [Compound I-10] | 21.95 | 21.60 | 21.18 | 21.27 | 20.90 | 20.13 | 19.25 | 5.8 | – | – | – | – | – | – | – | – | – | – | – | – | –
3 | CC(=O)OC[C@H]1O[C@@H](OC2=C(C)OC(=C3CCCCC3)C2=O)[C@H](OC(C)=O)[C@@H](OC(C)=O)[C@@H]1OC(C)=O [Compound I-9] | 21.20 | 21.17 | 20.92 | 20.47 | 20.03 | 19.42 | 19.38 | 6.3 | – | – | – | – | – | – | – | – | – | – | – | – | Effect on the colon length (in words) [1]: can gradually restore the colon length
4 | O=C(O)c1cc(/N=N/c2ccc(S(=O)(=O)Nc3ccccn3)cc2)ccc1O [SASP, salazosulfapyridine, reference compound] | – | – | – | – | – | – | – | – | – | – | – | – | – | – | – | – | – | – | – | – | Average weight of mice ([2]; Day 1, positive control group 30 mg/kg oral gavage): 26.8 g; Average weight of mice ([2]; Day 2, positive control group 30 mg/kg oral gavage): 26.86 g; Average weight of mice ([2]; Day 3, positive control group 30 mg/kg oral gavage): 26.82 g; Average weight of mice ([2]; Day 4, positive control group 30 mg/kg oral gavage): 26.8 g; Average weight of mice ([2]; Day 5, positive control group 30 mg/kg oral gavage): 26.52 g; Average weight of mice ([2]; Day 6, positive control group 30 mg/kg oral gavage): 25.74 g; Average weight of mice ([2]; Day 7, positive control group 30 mg/kg oral gavage): 24.38 g; Average weight of mice ([2]; Day 8, positive control group 30 mg/kg oral gavage): 22.92 g; Average weight of mice ([2]; Day 9, positive control group 30 mg/kg oral gavage): 22.3 g; Average weight of mice ([2]; Day 10, positive control group 30 mg/kg oral gavage): 22.34 g; Average weight of mice ([2]; Day 11, positive control group 30 mg/kg oral gavage): 22.68 g; Average weight of mice ([2]; Day 12, positive control group 30 mg/kg oral gavage): 23.14 g; Average weight of mice ([2]; Day 13, positive control group 30 mg/kg oral gavage): 23.52 g; Average weight of mice ([2]; Day 14, positive control group 30 mg/kg oral gavage): 23.52 g; Average colon length of mice ([2]; positive control group 30 mg/kg oral gavage): 6.0 cm
5 | CC(=O)OC[C@H]1O[C@@H](OC2=C(C)OC(=C3CCN(C(C)=O)CC3)C2=O)[C@H](OC(C)=O)[C@@H](OC(C)=O)[C@@H]1OC(C)=O [Compound I-12] | 21.25 | 21.22 | 21.13 | 20.62 | 20.10 | 16.32 | 18.88 | 5.7 | – | – | – | – | – | – | – | – | – | – | – | – | –
6 | CC(=O)OC[C@H]1O[C@@H](OC2=C(C)OC(=C(C)C)C2=O)[C@H](OC(C)=O)[C@@H](OC(C)=O)[C@H]1OC(C)=O [Compound I-4, 4-O-[(2,3,4,6-tetra-O-acetyl)-β-D-galactosyl]-5-methyl-2-(1-methylethylidene)-3(2H)-furanone] | – | – | – | – | – | – | – | – | better than the positive control drug | significant improvement in the reduction of weight in mice | 26.72 | 26.76 | 26.72 | 26.72 | 26.44 | 26.36 | 24.82 | 23.44 | 23.3 | 23.3 | Average weight of mice [2, 13]: 24.02 g; Average weight of mice [2, 14]: 24.14 g; Average weight of mice [2, 15]: 24.5 g; Average weight of mice [2, 16]: 24.68 g; Average colon length of mice [2, 17]: 6.2 cm
7 | COC(=O)[C@H]1O[C@@H](OC2=C(C)OC(=C(C)C)C2=O)[C@H](OC(C)=O)[C@@H](OC(C)=O)[C@@H]1OC(C)=O [Compound I-5] | – | – | – | – | – | – | – | – | better than the positive control drug | significant improvement in the reduction of weight in mice | 26.9 | 26.92 | 26.88 | 26.9 | 26.58 | 26.32 | 25.3 | 23.6 | 23.24 | 23.24 | Average weight of mice [2, 13]: 24.2 g; Average weight of mice [2, 14]: 24.48 g; Average weight of mice [2, 15]: 24.5 g; Average weight of mice [2, 16]: 24.68 g; Average colon length of mice [2, 17]: 6.0 cm
8 | CC(C)=C1OC(C)=C(O[C@@H]2O[C@H](COC(=O)C(C)(C)C)[C@@H](OC(=O)C(C)(C)C)[C@H](OC(=O)C(C)(C)C)[C@H]2OC(=O)C(C)(C)C)C1=O [Compound I-6] | – | – | – | – | – | – | – | – | better than the positive control drug | significant improvement in the reduction of weight in mice | 26.9 | 26.94 | 26.9 | 26.9 | 26.64 | 26.2 | 24.52 | 24.38 | 24.42 | 24.42 | Average weight of mice [2, 13]: 24.66 g; Average weight of mice [2, 14]: 24.94 g; Average weight of mice [2, 15]: 24.72 g; Average weight of mice [2, 16]: 24.5 g; Average colon length of mice [2, 17]: 5.9 cm

— patent US20230092001A1, “FURANEOL GLYCOSIDE COMPOUND, PHARMACEUTICAL COMPOSITION THEREOF, PREPARATION METHOD THEREFOR, AND APPLICATION THEREOF” (priority 2019, published 2023)
